pIC50: −log10 of the molar value. Numbered stars: 1 amine (or outer) side, 2 acyl side, 3 side chain; on linkers, the order of the positions; unused ones are H or OH. Bridge positions count the residues as written; N and C are the ends. Square brackets hold non-standard residues; d marks the D form. Peptide text beside a SMILES is read from it. * marks the point of attachment. hPhe(3-Cl-4-CF3) = N[C@@H](CCc1ccc(C(F)(F)F)c(Cl)c1)C(=O)O; hPhe(3-F,4-CF3) = N[C@@H](CCc1ccc(C(F)(F)F)c(F)c1)C(=O)O; NMePhe(4-CF3) = CN[C@@H](Cc1ccc(C(F)(F)F)cc1)C(=O)O; hPhe(4-CF3) = N[C@@H](CCc1ccc(C(F)(F)F)cc1)C(=O)O; 3Oxa8azabicyclo(3.2.1)octane = C1CC2COCC1N2*; NMePhe(4-Cl) = CN[C@@H](Cc1ccc(Cl)cc1)C(=O)O; NMePhe(4-F) = CN[C@@H](Cc1ccc(F)cc1)C(=O)O; X72 = O=C([C@@H]1Cc2ccccc2N1[*:1])[*:2]; NMeGly(cPent) = CN[C@H](C(=O)O)C1CCCC1; NMeCha = CN[C@@H](CC1CCCCC1)C(=O)O; NMeChg = CN[C@H](C(=O)O)C1CCCCC1; NMeF = CN[C@@H](Cc1ccccc1)C(=O)O; NMeI = CC[C@H](C)[C@H](NC)C(=O)O; Gly(cPr) = N[C@H](C(=O)O)C1CC1; NMeD = CN[C@@H](CC(=O)O)C(=O)O; NMeL = CN[C@@H](CC(C)C)C(=O)O; NMeV = CN[C@H](C(=O)O)C(C)C; d(β3hA) = C[C@@H](N)CC(=O)O; Azetidin(1-yl) = C1CN(*)C1; NMeA = CN[C@@H](C)C(=O)O; Piperidide = C1CCN(*)CC1; dNMeA = CN[C@H](C)C(=O)O; Ac5c = NC1(C(=O)O)CCCC1; Aze = O=C(O)[C@@H]1CCN1; NcPrGly = O=C(O)CNC1CC1; Aib = CC(C)(N)C(=O)O; βAla = NCCC(=O)O; Sar = CNCC(=O)O
These compounds were tested on Human pancreatic cancer cell line AsPC-1 (G12D mutation Kras) (assay: AsPC-1 cell growth inhibition (AsPC-1 CGI)). Settings: read-out: AsPC-1 cell growth inhibition, 50% growth inhibitory concentration (IC50 value); 96 hours, CellTiter-Glo, values classified in ranges.
Type: cell-based
Procedure: Test compounds were serially dilated with dimethyl sulfoxide, and 200 nL was then dispensed to a U-bottom 96-well plate using Labcyte Echo. […] The cell suspension was dispensed to a. plate containing a test compound at 100 μL per well and incubated at 37° C. in a 5% carbon dioxide gas incubator. 96 hours later, 80 μL of CellTiter-Glo (Promega) was added to each well and fluorescence was measured.

`CC[C@H](C)[C@@H]1NC(=O)[C@H](CC(C)C)N(C)C(=O)C[C@@H](C(=O)N2CCCCC2)N(C)C(=O)[C@H](C2CCCCC2)N(C)C(=O)C2(CCCC2)NC(=O)[C@@H]2Cc3ccccc3N2C(=O)[C@H](CCc2ccc(C(F)(F)F)c(Cl)c2)NC(=O)CN(C)C(=O)[C@H](CC2CCCCC2)N(C)C(=O)CN(C)C(=O)CN(C)C1=O` [Compound 514] ([NMeL]I[Sar][Sar][NMeCha][Sar][hPhe(3-Cl-4-CF3)][X72][Ac5c][NMeChg][NMeD]-Piperidide; lactam N-11) and `CC[C@H](C)[C@@H]1NC(=O)[C@H](CC(C)C)N(C)C(=O)C[C@@H](C(=O)N2CCCCC2)N(C)C(=O)[C@H](C2CCCCC2)N(C)C(=O)C2(CCCC2)NC(=O)[C@H](Cc2ccccc2)N(C)C(=O)[C@H](CCc2ccc(C(F)(F)F)c(Cl)c2)NC(=O)CN(C)C(=O)[C@H](CC2CCCCC2)N(C)C(=O)[C@@H]2CCN2C(=O)CN(C)C1=O` [Compound 527] ([NMeL]I[Sar][Aze][NMeCha][Sar][hPhe(3-Cl-4-CF3)][NMeF][Ac5c][NMeChg][NMeD]-Piperidide; lactam N-11) cannot be ordered by pIC50: < 6.30 for the first, < 6.30 for the second.

First: CC[C@H](C)[C@@H]1NC(=O)[C@H](CC(C)C)N(C)C(=O)C[C@@H](C(=O)N2CCC2)N(C)C(=O)[C@H](C2CCCC2)N(C)C(=O)C2(CCCC2)NC(=O)[C@@H]2CCCN2C(=O)[C@H](CCc2ccc(C(F)(F)F)c(Cl)c2)NC(=O)CN(C)C(=O)[C@H](CC2CCCCC2)N(C)C(=O)[C@@H]2CCN2C(=O)[C@H](C)N(C)C1=O [Compound 515] ([NMeL]I[NMeA][Aze][NMeCha][Sar][hPhe(3-Cl-4-CF3)]P[Ac5c][NMeGly(cPent)][NMeD]-{Azetidin(1-yl)}; lactam N-11)
Second: CC(C)C[C@H]1C(=O)N[C@@H](C2CC2)C(=O)N(C)CC(=O)N(C)CC(=O)N(C)[C@@H](CC2CCCCC2)C(=O)N(C)CC(=O)N[C@@H](CCc2ccc(C(F)(F)F)c(Cl)c2)C(=O)N2CCC[C@H]2C(=O)NC2(CCCC2)C(=O)N(C)[C@@H](C(C)C)C(=O)N(C)[C@H](C(=O)N2CCCCC2)CC(=O)N1C [Compound 533] ([NMeL][Gly(cPr)][Sar][Sar][NMeCha][Sar][hPhe(3-Cl-4-CF3)]P[Ac5c][NMeV][NMeD]-Piperidide; lactam N-11)
The pIC50 of the first is higher: ≥ 7.70 for the first, < 6.30 for the second. The first is the more potent here.

`CC[C@H](C)[C@@H]1NC(=O)[C@H](C)N(C)C(=O)C[C@@H](C)NC(=O)[C@H](C(C)C)N(C)C(=O)C2(CCCC2)NC(=O)[C@@H]2CCCN2C(=O)[C@H](CCc2ccc(C(F)(F)F)c(Cl)c2)NC(=O)[C@@H](C)N(C)C(=O)[C@H](CC2CCCCC2)N(C)C(=O)[C@@H]2CCCN2C(=O)CN(C)C1=O` [Compound 516] (cyclo([Ac5c][NMeV][d(β3hA)][NMeA]I[Sar]P[NMeCha][dNMeA][hPhe(3-Cl-4-CF3)]P)) and `CC[C@H](C)[C@@H]1NC(=O)[C@H](CC(C)C)N(C)C(=O)C[C@@H](C)NC(=O)[C@H](C(C)C)N(C)C(=O)C2(CCCC2)NC(=O)[C@@H]2CCCN2C(=O)[C@H](CCc2ccc(C(F)(F)F)c(Cl)c2)NC(=O)CN(C)C(=O)[C@H](CC2CCCCC2)N(C)C(=O)CN(C)C(=O)CN(C2CC2)C1=O` [Compound 542] (cyclo([Ac5c][NMeV][d(β3hA)][NMeL]I[NcPrGly][Sar][NMeCha][Sar][hPhe(3-Cl-4-CF3)]P)) cannot be ordered by pIC50: < 6.30 for the first, < 6.30 for the second.

`CC[C@H](C)[C@@H]1NC(=O)[C@H](CC(C)C)N(C)C(=O)C[C@@H](C(=O)N2CCCCC2)N(C)C(=O)[C@H](C(C)C)N(C)C(=O)C(C)(C)NC(=O)[C@@H]2CCCN2C(=O)[C@H](CCc2ccc(C(F)(F)F)c(F)c2)NC(=O)CN(C)C(=O)[C@H](CC2CCCCC2)N(C)C(=O)CN(C)C(=O)CN(C)C1=O` [Compound 522] ([NMeL]I[Sar][Sar][NMeCha][Sar][hPhe(3-F,4-CF3)]P[Aib][NMeV][NMeD]-Piperidide; lactam N-11) and `CC[C@H](C)[C@@H]1NC(=O)CCNC(=O)[C@H](Cc2ccc(F)cc2)N(C)C(=O)[C@H](C2CCCCC2)N(C)C(=O)C2(CCCC2)NC(=O)[C@@H]2CCCN2C(=O)[C@H](CCc2ccc(C(F)(F)F)c(Cl)c2)NC(=O)CN(C)C(=O)[C@H](CC2CCCCC2)N(C)C(=O)CN(C)C(=O)CN(C)C1=O` [Compound 528] (cyclo([Ac5c][NMeChg][NMePhe(4-F)][βAla]I[Sar][Sar][NMeCha][Sar][hPhe(3-Cl-4-CF3)]P)) cannot be ordered by pIC50: < 6.30 for the first, < 6.30 for the second.

Compared with `CC[C@H](C)[C@@H]1NC(=O)[C@H](C(C)C)N(C)C(=O)C[C@@H](C)NC(=O)[C@H](CC(C)C)N(C)C(=O)C2(CCCC2)NC(=O)[C@H](CC(C)C)N(C)C(=O)[C@H](CCc2ccc(C(F)(F)F)cc2)NC(=O)CN(C)C(=O)[C@H](Cc2ccc(Cl)cc2)N(C)C(=O)CN(C)C(=O)[C@@H]2CCN2C1=O` [Compound 538] (cyclo([Ac5c][NMeL][d(β3hA)][NMeV]I[Aze][Sar][NMePhe(4-Cl)][Sar][hPhe(4-CF3)][NMeL])), `CC[C@H](C)[C@@H]1NC(=O)[C@H](CC(C)C)N(C)C(=O)C[C@@H](C(=O)N2C3CCC2COC3)N(C)C(=O)[C@H]([C@@H](C)CC)N(C)C(=O)C2(CCCC2)NC(=O)[C@@H]2CCCN2C(=O)[C@H](CCc2ccc(C(F)(F)F)c(Cl)c2)NC(=O)CN(C)C(=O)[C@H](Cc2ccc(C(F)(F)F)cc2)N(C)C(=O)[C@@H]2CCN2C(=O)[C@H](C)N(C)C1=O` [Compound 545] ([NMeL]I[NMeA][Aze][NMePhe(4-CF3)][Sar][hPhe(3-Cl-4-CF3)]P[Ac5c][NMeI][NMeD]-{3Oxa8azabicyclo(3.2.1)octane}; lactam N-11) is higher in pIC50: < 6.30 for the first, ≥ 7.70 for the second.

From US20240148821A1, “PHARMACEUTICAL USE OF CYCLIC PEPTIDE COMPOUND” (CHUGAI SEIYAKU KABUSHIKI KAISHA, priority 2021, published 2024)
